Results on 17 molecules are retold here after PubChem BioAssay (NCI).

Values joined by “and” are separate entries in the source; they are usually repeats but may differ in a detail not shown here. Equal entries are not always repeated.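 Briefly, cells in 96-well plates were exposed to five compound concentrations for 48 h, and endpoints were estimated by linear interpolation. GI50 marks 50% less growth. TGI: total growth inhibition.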 Where only a bound is given, the exact number is not on record here.

What all share (assay): growth of human tumour cells (NCI), 48 h
The subject of test [1] is COLO 205 colon.
In test [2] the test system is EKVX NSCLC.
Test [3] relates to MALME-3M melanoma.
Test [4] has as its system CCRF-CEM leukemia.
Test [5] concerns OVCAR-3 ovarian.
Test [6] relates to MDA-MB-231 breast.
Test [7] concerns 786-0 renal.
Test [8] deals with A549 NSCLC.
For test [9], the system named is UO-31 renal.
For test [10], the system named is T-47D breast.

On to `COc1ccc(N2C(=O)CSC2c2cc(OC)c(OC)c(OC)c2)cc1` (stereo not given), for which the TGI in [1] was 54.1 µM; in test [2], > 100 µM; in test [3], 97.7 µM; in test [4] it was 35.1 µM; in test [5] it was 64.8 µM; in test [6], 78.1 µM. Further, the TGI stood at 48.4 µM in test [7], 83.4 µM in [8] and 27.1 µM in test [9].
As to `NC(=S)N1N=C(c2ccc3c(c2)CCC3)CC1c1ccccc1` (stereo not given), the TGI in [1] was 50.8 µM; in test [2] it was > 100 µM; in test [3], 74.4 µM; in [4], > 100 µM; in [5], 55.8 µM; in test [10], 27.9 µM. Also, the TGI in [7], in test [8] and in test [9] was > 100 µM throughout.
Consider `O=C(O)C1(Cc2ccc3c(c2)CCC3)Cc2cc3c(cc2C1)CCC3`, for which the TGI in test [1], in test [2], in test [3], in [4], in test [5] and in test [7] was > 100 µM each time. Further, the TGI in test [8] and in test [9] was > 100 µM each time.
For the molecule `C=CC(=O)N1C/C(=C\c2ccc(F)cc2)C(=O)/C(=C/c2ccc(F)cc2)C1`, the TGI in [1] was 1.81 µM; in test [2] it was 3.88 µM; in test [3], 2.41 µM; in [4] it was > 100 µM; in test [5], 1.19 µM; in [10], 39.7 µM. Moreover, the TGI was 0.346 µM in [7], 4.47 µM in test [8] and 2.17 µM in test [9].
With `CN(c1ccccc1)c1c(-c2ccccc2)c(=O)oc2c1ccc1occc12`, the TGI in test [1], in [2], in [3], in [4], in [5] and in [8] was > 100 µM in each case. The TGI in [9] was > 100 µM.
Take `N#Cc1nc(Cc2cccs2)oc1N`: the TGI in test [2], in [4], in test [6], in test [7], in test [8] and in [9] was > 100 µM in each case.
For `COc1cccc2c1C(=O)c1c(O)c3c(c(O)c1C2=O)C[C@](O)(C(=O)CO)CC3OC1CC(N)C(OC2CCCCO2)C(C)O1` (stereo not given in full), the TGI in [1] stood at 2.61 µM; in [2], 3.43 µM; in test [3], 0.705 µM; in test [5], 4.56 µM; in test [8], 13.3 µM; in test [9], 3.63 µM.
Turning to `Brc1ccc2[nH]cc(-c3nc(-c4c[nH]c5ccncc45)cs3)c2c1`, the GI50 in test [3] was 2.14 µM; in test [4] it was 2.24 µM; in test [6], 1.52 µM; in [9], 1.47 µM. In addition, the TGI in test [3] came to 3.72 µM; in [4], 5.14 µM; in test [6] it was 2.95 µM; in test [9], 2.8 µM.
For the molecule `CC(=O)Nc1oc(C)nc1C#N`, the TGI in [2], in test [4], in test [6], in [7] and in test [8] was > 100 µM in each case.
Regarding `O=C(c1ccccc1)c1ccc2c(c1)N=C(c1ccc(Cl)c(Cl)c1)CC(c1ccc3ccccc3c1)N2` (stereo not given), the TGI in test [1], in test [2], in test [4], in test [8] and in test [9] was > 100 µM each time.
For the molecule `O=c1[nH]nc(Cc2ccc([N+](=O)[O-])cc2)[nH]1`, the TGI in test [1], in test [2], in test [3], in test [4], in test [5] and in [10] was > 100 µM each time. Moreover, the TGI in [7], in [8] and in test [9] was > 100 µM in each case.
Turning to `COc1cccc(C2c3cc4c(cc3OC(N3CCOCC3)C2C)OCO4)c1` (stereo not given), the TGI in test [1] was 29.8 µM; in test [2], 87.7 µM; in test [3], > 100 µM; in test [5], 38.6 µM; in test [10] it was > 100 µM; in test [6], > 100 µM. Also, the TGI in [8] came out at 51.9 µM; in [9] it was 43.4 µM.
For the molecule `O=c1oc2ccccc2cc1-c1nc2ccccc2s1`, the TGI in test [2] was determined as 39.2 µM; in test [3] it was 9.2 µM; in test [5] it was 20.7 µM; in test [6], 27.6 µM; in test [7], 10.6 µM; in test [8], 16.8 µM. For the same molecule, the TGI in test [9] stood at 17.6 µM.
As for `O=C1/C(=C/c2ccc(Cl)c(Cl)c2)CN(C(=O)CCN2CCOCC2)C/C1=C\c1ccc(Cl)c(Cl)c1`, the GI50 is 1.37 µM in test [2] and 1.08 µM in test [5]. The TGI is 4.35 µM and 6.41 µM and 3.09 µM in test [2]; 0.00591 µM in test [6].
With `COC(=O)C1CC(C=O)=C(SC)N1` (stereo not given), the TGI in [1], in test [2], in test [3], in test [5], in test [6] and in [7] was > 50 µM throughout. Also, the TGI in [8] and in [9] was > 50 µM each time.
As for `CC(C)=CCC/C(C)=C/CCC1(C)C2COC(=O)C21` (stereo not given), the TGI in test [1] was > 100 µM; in [2] it was > 100 µM; in test [3], > 100 µM; in test [4] it was 80.8 µM; in test [5], > 100 µM; in test [6], > 100 µM. The TGI in [7] and in test [9] was > 100 µM in each case.
Turning to `CCCCC[C@@H]1OC(=O)[C@@]2(CC3c4ccccc4C2c2ccccc23)[C@H]1C(=O)OC`, the TGI in test [1] was 30.5 µM; in [2], > 100 µM; in [3], > 100 µM; in [4], > 100 µM; in test [5] it was > 100 µM; in test [6], > 100 µM. Also, the TGI in [7], in test [8] and in test [9] was > 100 µM each time.
